Data reported in patent publication US20240262826A1, “WILD TYPE KIT INHIBITORS” (Blueprint Medicines Corporation, priority 2022, published 2024).

Target: wild type c-kit (Homo sapiens (Human), UniProt P10721)
Experiment: PathScan phospho c-kit (Tyr719) sandwich ELISA in SCF-stimulated M-07e cells (pKIT assay)
Assay type: cell-based
Settings: ELISA assay (values not marked *)
In short: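 Serum- and GM-CSF-starved M-07e cells (4 h) pretreated 60 min at 37 °C with an 8-point compound series in duplicate (0.25% DMSO), then stimulated with human SCF (500 ng/mL stock) 10 min at room temperature. Lysate c-kit Tyr719 phosphorylation quantified by sandwich ELISA with TMB read-out; IC50 from 4-parameter logistic fit.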

Chain of wild type c-kit (P10721 26-976): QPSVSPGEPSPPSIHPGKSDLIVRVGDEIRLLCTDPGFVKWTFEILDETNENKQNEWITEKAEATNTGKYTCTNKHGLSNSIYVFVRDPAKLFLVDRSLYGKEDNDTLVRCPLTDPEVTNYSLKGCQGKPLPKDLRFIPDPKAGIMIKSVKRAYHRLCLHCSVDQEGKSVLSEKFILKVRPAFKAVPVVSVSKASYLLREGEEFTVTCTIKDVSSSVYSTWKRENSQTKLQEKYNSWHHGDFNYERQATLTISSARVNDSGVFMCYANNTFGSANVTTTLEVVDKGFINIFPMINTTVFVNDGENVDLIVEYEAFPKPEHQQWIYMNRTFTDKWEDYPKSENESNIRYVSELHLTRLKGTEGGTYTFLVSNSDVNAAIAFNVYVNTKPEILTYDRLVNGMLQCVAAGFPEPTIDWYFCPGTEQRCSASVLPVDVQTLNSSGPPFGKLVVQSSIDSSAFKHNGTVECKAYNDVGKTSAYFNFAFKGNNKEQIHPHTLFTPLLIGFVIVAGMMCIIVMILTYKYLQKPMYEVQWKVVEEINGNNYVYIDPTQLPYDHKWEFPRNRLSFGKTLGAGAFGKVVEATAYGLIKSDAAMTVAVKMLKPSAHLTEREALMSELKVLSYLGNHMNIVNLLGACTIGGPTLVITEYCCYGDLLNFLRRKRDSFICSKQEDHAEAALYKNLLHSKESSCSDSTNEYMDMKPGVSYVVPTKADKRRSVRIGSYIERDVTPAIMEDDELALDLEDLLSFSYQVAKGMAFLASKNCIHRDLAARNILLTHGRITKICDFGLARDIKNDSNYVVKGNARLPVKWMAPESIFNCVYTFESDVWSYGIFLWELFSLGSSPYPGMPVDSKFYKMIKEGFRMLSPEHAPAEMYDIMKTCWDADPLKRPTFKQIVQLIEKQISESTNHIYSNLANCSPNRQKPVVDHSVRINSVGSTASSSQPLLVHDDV

| Compound | IC50 [nM] |
| --- | --- |
| Cc1c(-c2ccn3ncc(C(=O)Nc4cc(-c5nnn(C6CC6)n5)c(F)cc4Cl)c3c2)cnn1C[C@H](C)O [Example 264, (S)-N-(2-chloro-5-(2-cyclopropyl-2H-tetrazol-5-yl)-4-fluorophenyl)-5-(1-(2-hydroxypropyl)-5-methyl-1H-pyrazol-4-yl)pyrazolo[1,5-a]pyridine-3-carboxamide] | 0.5 |
| O=C(Nc1cc(-c2nnn(C3CC3)n2)ccc1Cl)c1cnn2ccc(-c3cnn(CC4(O)CCOCC4)c3)cc12 [Example 236, N-(2-chloro-5-(2-cyclopropyl-2H-tetrazol-5-yl)phenyl)-5-(1-((4-hydroxytetrahydro-2H-pyran-4-yl)methyl)-1H-pyrazol-4-yl)pyrazolo[1,5-a]pyridine-3-carboxamide] | 0.6 |
| [2H]C([2H])([2H])c1ccc(-c2nnn(C3CN(C(=O)OC)C3)n2)cc1NC(=O)c1cnn2ccc(NCCOC)cc12 [Example 118, methyl 3-(5-(3-(5-((2-methoxyethyl)amino)pyrazolo[1,5-a]pyridine-3-carboxamido)-4-(methyl-d3)phenyl)-2H-tetrazol-2-yl)azetidine-1-carboxylate] | 22.7 |
| COC(=O)N1CC(n2nnc(-c3ccc(C)c(NC(=O)c4cnn5ccc(NCC(F)F)cc45)c3)n2)C1 [Example 131, methyl 3-(5-(3-(5-((2,2-difluoroethyl)amino)pyrazolo[1,5-a]pyridine-3-carboxamido)-4-methylphenyl)-2H-tetrazol-2-yl)azetidine-1-carboxylate] | 49 |
| Cc1ccc(-c2nnn(C)n2)cc1NC(=O)c1cnn2ccc(-c3cnn(CC(C)(C)O)c3)cc12 [Example 48, 5-(1-(2-hydroxy-2-methylpropyl)-1H-pyrazol-4-yl)-N-(2-methyl-5-(2-methyl-2H-tetrazol-5-yl)phenyl)pyrazolo[1,5-a]pyridine-3-carboxamide] | 3.6 |
| O=C(Nc1cc(-c2nnn(CC3CC3)n2)ccc1Cl)c1cnn2ccccc12 [Example 15, N-(2-chloro-5-(2-(cyclopropylmethyl)-2H-tetrazol-5-yl)phenyl)pyrazolo[1,5-a]pyridine-3-carboxamide] | 4.2 |
| COC(=O)N1CC(n2nnc(-c3ccc(C)c(NC(=O)c4cnn5ccc(N[C@H]6CCOC6)cc45)c3)n2)C1 [Example 136, methyl (S)-3-(5-(4-methyl-3-(5-((tetrahydrofuran-3-yl)amino)pyrazolo[1,5-a]pyridine-3-carboxamido)phenyl)-2H-tetrazol-2-yl)azetidine-1-carboxylate] | 76.2 |
| COC(=O)N1CC(n2nnc(-c3ccc(C)c(NC(=O)c4cnn5ccc(NCCO)cc45)c3)n2)C1 [Example 142, Methyl 3-(5-(3-(5-((2-hydroxyethyl)amino)pyrazolo[1,5-a]pyridine-3-carboxamido)-4-methylphenyl)-2H-tetrazol-2-yl)azetidine-1-carboxylate] | 17.1 |
| [2H]C([2H])([2H])OCCNc1ccn2ncc(C(=O)Nc3cc(-c4nnn(C5CN(C(=O)OC)C5)n4)ccc3C)c2c1 [Example 100, methyl 3-(5-(3-(5-((2-(methoxy-d3)ethyl)amino)pyrazolo[1,5-a]pyridine-3-carboxamido)-4-methylphenyl)-2H-tetrazol-2-yl)azetidine-1-carboxylate] | 33.8 |
| Cc1nnn(-c2ccc(Cl)c(NC(=O)c3cnn4ccc(-c5cnn(CC(C)(C)O)c5)cc34)c2)n1 [Example 212, N-(2-chloro-5-(5-methyl-2H-tetrazol-2-yl)phenyl)-5-(1-(2-hydroxy-2-methylpropyl)-1H-pyrazol-4-yl)pyrazolo[1,5-a]pyridine-3-carboxamide] | 5.6 |
| COC(=O)N1CC(n2nnc(-c3ccc(C)c(NC(=O)c4cnn5ccc(N6CCN(C7COC7)CC6)cc45)c3)n2)C1 [Example 74, methyl 3-(5-(4-methyl-3-(5-(4-(oxetan-3-yl)piperazin-1-yl)pyrazolo[1,5-a]pyridine-3-carboxamido)phenyl)-2H-tetrazol-2-yl)azetidine-1-carboxylate] | 63.9 |
| COC[C@H](O)Cn1cc(-c2ccn3ncc(C(=O)Nc4cc(-c5nnn(C6CC6)n5)c(F)cc4Cl)c3c2)c(C)n1 [Example 279, (R)—N-(2-chloro-5-(2-cyclopropyl-2H-tetrazol-5-yl)-4-fluorophenyl)-5-(1-(2-hydroxy-3-methoxypropyl)-3-methyl-1H-pyrazol-4-yl)pyrazolo[1,5-a]pyridine-3-carboxamide] | 0.6 |
| CNc1ccn2ncc(C(=O)Nc3cc(-c4nnn(C5CN(C(=O)OC)C5)n4)ccc3C)c2c1 [Example 133, methyl 3-(5-(4-methyl-3-(5-(methylamino)pyrazolo[1,5-a]pyridine-3-carboxamido)phenyl)-2H-tetrazol-2-yl)azetidine-1-carboxylate] | 34.5 |
| Cc1cc(C)c(-c2nnn(CCC(C)(O)C(F)(F)F)n2)cc1NC(=O)c1cnn2ccccc12 (centres unmarked) [Example 36, N-(2,4-dimethyl-5-(2-(4,4,4-trifluoro-3-hydroxy-3-methylbutyl)-2H-tetrazol-5-yl)phenyl)pyrazolo[1,5-a]pyridine-3-carboxamide] | 8.5 |
| Cc1ccc(-n2nnc(C3CN(S(C)(=O)=O)C3)n2)cc1NC(=O)c1cnn2ccccc12 [Example 190] | 22.8 |
| COCCNc1ccn2ncc(C(=O)Nc3cc(-c4nnn(C5CC6(CCC6)C5)n4)ccc3C)c2c1 [Example 150, 5-((2-methoxyethyl)amino)-N-(2-methyl-5-(2-(spiro[3.3]heptan-2-yl)-2H-tetrazol-5-yl)phenyl)pyrazolo[1,5-a]pyridine-3-carboxamide] | 3.4 |
| COCCNc1ccc2c(C(=O)Nc3cc(-c4nnn(C5CN(C(=O)OC)C5)n4)ccc3Cl)cnn2c1 [Example 164, Methyl 3-(5-(4-chloro-3-(6-((2-methoxyethyl)amino)pyrazolo[1,5-a]pyridine-3-carboxamido)phenyl)-2H-tetrazol-2-yl)azetidine-1-carboxylate] | 8 |
| COC[C@@H](O)Cn1ncc(-c2ccn3ncc(C(=O)Nc4cc(-c5nnn(C6CC6)n5)c(C)cc4Cl)c3c2)c1C [Example 262, (S)-N-(2-chloro-5-(2-cyclopropyl-2H-tetrazol-5-yl)-4-methylphenyl)-5-(1-(2-hydroxy-3-methoxypropyl)-5-methyl-1H-pyrazol-4-yl)pyrazolo[1,5-a]pyridine-3-carboxamide] | 1.1 |
| Cc1cc(C2CC2)c(-c2nnn(C3CC(F)(F)C3)n2)cc1NC(=O)c1cnn2ccc(N3CCOCC3)cc12 [Example 166, N-(4-cyclopropyl-5-(2-(3,3-difluorocyclobutyl)-2H-tetrazol-5-yl)-2-methylphenyl)-5-morpholinopyrazolo[1,5-a]pyridine-3-carboxamide] | 37.7 |
| Cn1nnc(-c2ccc(Cl)c(NC(=O)c3cnn4ccc(-c5cnn(CC(C)(C)O)c5)cc34)c2)n1 [Example 210, N-(2-chloro-5-(2-methyl-2H-tetrazol-5-yl)phenyl)-5-(1-(2-hydroxy-2-methylpropyl)-1H-pyrazol-4-yl)pyrazolo[1,5-a]pyridine-3-carboxamide] | 7.4 |
| Cc1ccc(-c2nnn([C@H]3C[C@H](C(F)(F)F)C3)n2)cc1NC(=O)c1cnn2ccc(NCCO)cc12 [Example 121, 5-((2-hydroxyethyl)amino)-N-(2-methyl-5-(2-((1r,3r)-3-(trifluoromethyl)cyclobutyl)-2H-tetrazol-5-yl)phenyl)pyrazolo[1,5-a]pyridine-3-carboxamide or 5-((2-hydroxyethyl)amino)-N-(2-methyl-5-(2-((1s,3s)-3-(trifluoromethyl)cyclobutyl)-2H-tetrazol-5-yl)phenyl)pyrazolo[1,5-a]pyridine-3-carboxamide] | 11.9 |
| CC(C)(O)Cn1cc(-c2ccn3ncc(C(=O)Nc4cc(-n5nnc(C6CC6)n5)ccc4Cl)c3c2)cn1 [Example 216, N-(2-chloro-5-(5-cyclopropyl-2H-tetrazol-2-yl)phenyl)-5-(1-(2-hydroxy-2-methylpropyl)-1H-pyrazol-4-yl)pyrazolo[1,5-a]pyridine-3-carboxamide] | 2.4 |
| Cc1ccc(-c2nnn(CCCC(F)(F)F)n2)cc1NC(=O)c1cnn2ccccc12 [Example 1, N-(2-methyl-5-(2-(4,4,4-trifluorobutyl)-2H-tetrazol-5-yl)phenyl)pyrazolo[1,5-a]pyridine-3-carboxamide] | 3.8 |
| Cc1ccc(-c2nnn(C3CN(S(=O)(=O)C(C)C)C3)n2)cc1NC(=O)c1cnn2ccccc12 [Example 177, N-(5-(2-(1-(isopropylsulfonyl)azetidin-3-yl)-2H-tetrazol-5-yl)-2-methylphenyl)pyrazolo[1,5-a]pyridine-3-carboxamide] | 8.8 |
| COC(=O)N1CC(n2nnc(-c3ccc(Cl)c(NC(=O)c4cnn5ccccc45)c3)n2)C1 [Example 192] | 10.6 |
| Cc1cc(C)c(-c2nnn(CC34COC(C3)C4)n2)cc1NC(=O)c1cnn2ccccc12 [Example 20, N-(5-(2-((2-oxabicyclo[2.1.1]hexan-4-yl)methyl)-2H-tetrazol-5-yl)-2,4-dimethylphenyl)pyrazolo[1,5-a]pyridine-3-carboxamide] | 50.9 |
| COCCNc1ccn2ncc(C(=O)Nc3cc(-c4nnn(C5CC(F)(F)C5)n4)c(F)cc3C)c2c1 [Example 105, N-(5-(2-(3,3-difluorocyclobutyl)-2H-tetrazol-5-yl)-4-fluoro-2-methylphenyl)-5-((2-methoxyethyl)amino)pyrazolo[1,5-a]pyridine-3-carboxamide] | 3.5 |
| Cc1ccc(-c2nnn(C3CN(S(=O)(=O)CCCCC#N)C3)n2)cc1NC(=O)c1cnn2ccccc12 [Example 186, N-(5-(2-(1-((4-cyanobutyl)sulfonyl)azetidin-3-yl)-2H-tetrazol-5-yl)-2-methylphenyl)pyrazolo[1,5-a]pyridine-3-carboxamide] | 103 |
| Cc1ccc(-c2nnn(C3CC(F)(F)C3)n2)cc1NC(=O)c1cnn2ccc(N3CC(O)C3)cc12 [Example 60, N-(5-(2-(3,3-difluorocyclobutyl)-2H-tetrazol-5-yl)-2-methylphenyl)-5-(3-hydroxyazetidin-1-yl)pyrazolo[1,5-a]pyridine-3-carboxamide] | 1.8 |
